This passage reports Kd results from paper PMC3951351 (Biochemistry, 2009).

One may read the Kd as the free concentration of one partner at which half of the binding sites on the other are occupied at equilibrium, for simple one-to-one binding. Low values mean a tighter complex, high ones a looser complex.

Molecules are shown by their SMILES.

The target in this test is T1, MreB (MreB1) (Thermotoga maritima, UniProt Q9WZ57).
T1 sequence (Q9WZ57 1-336): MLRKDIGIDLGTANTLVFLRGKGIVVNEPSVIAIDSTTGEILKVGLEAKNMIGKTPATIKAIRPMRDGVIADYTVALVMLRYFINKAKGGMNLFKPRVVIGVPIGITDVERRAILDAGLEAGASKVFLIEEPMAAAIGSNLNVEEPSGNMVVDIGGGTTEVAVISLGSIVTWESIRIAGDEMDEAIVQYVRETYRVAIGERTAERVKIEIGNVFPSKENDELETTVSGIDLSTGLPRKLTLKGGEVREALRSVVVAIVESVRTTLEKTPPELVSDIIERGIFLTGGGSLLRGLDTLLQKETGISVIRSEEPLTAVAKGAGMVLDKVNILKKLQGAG
Put plainly: STD NMR titration. Format: binding.

With `N=C(N)SCc1ccc(Cl)c(Cl)c1` [A22, S-(3,4-dichlorobenzyl)isothiourea], the Kd was determined as 1320 ± 140 nM.
